Source: patent US10906876B2, “Tetrahydroisoquinolines as selective NADPH oxidase 2 inhibitors” (University of Pittsburgh—Of the Commonwealth System of …, priority 2013, dated 2021)
Read-outs that look alike come from different tables or passages of the source.

How the values were obtained:
[1] = target: T1, Nox2 (Homo sapiens, UniProt P04839); assay: Cell-free superoxide production in lysed COS-Nox2 cells / Nox2 cell homogenate, cytochrome C assay; assay type: biochemical
T1 construct: expressed in transfected cells
T1 sequence (P04839 2-570 limits assumed): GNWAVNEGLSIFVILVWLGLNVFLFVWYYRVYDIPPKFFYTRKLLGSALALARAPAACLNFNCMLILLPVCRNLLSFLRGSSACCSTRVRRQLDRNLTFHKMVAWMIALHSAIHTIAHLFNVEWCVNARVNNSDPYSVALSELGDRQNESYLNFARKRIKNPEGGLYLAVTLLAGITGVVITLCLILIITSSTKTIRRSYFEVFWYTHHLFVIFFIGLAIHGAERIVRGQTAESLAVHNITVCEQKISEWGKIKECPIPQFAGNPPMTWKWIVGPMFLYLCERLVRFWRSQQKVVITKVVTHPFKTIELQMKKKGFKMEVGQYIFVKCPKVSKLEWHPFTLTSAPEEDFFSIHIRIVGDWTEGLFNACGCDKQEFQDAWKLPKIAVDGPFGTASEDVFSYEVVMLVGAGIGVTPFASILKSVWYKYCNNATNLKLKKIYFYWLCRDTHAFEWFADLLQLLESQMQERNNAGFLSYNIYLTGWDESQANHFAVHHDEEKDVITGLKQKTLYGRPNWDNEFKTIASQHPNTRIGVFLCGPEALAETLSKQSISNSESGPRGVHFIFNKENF
Method: COS-Nox2, COS-Nox1/NOXO1/NOXA1 and COS-22 cells were suspended to a concentration of 5×10^7 cells/ml in ice-cold disruption buffer (8 mM potassium, sodium phosphate buffer pH 7.0, 131 mM NaCl, 340 mM sucrose, 2 mM NaN3, 5 mM MgCl2, 1 mM EGTA, 1 mM EDTA and protease inhibitor cocktail) (Price et al., Blood, 2002, 99:2653-2661; Molshanski-Mor et al., Methods Mol. Biol., 2007, 412:385-428). The cells were lysed by freeze/thaw cycles (5 cycles), and passed through a 30-gauge needle 5 times to further lyse the cells. Cell disruption was confirmed by phase contrast microscopy. The cell lysate was centrifuged at 1000×g for 10 min at 4° C. to remove unbroken cells, nuclei and debris. Throughout all procedures, extreme care was taken to maintain the lysate at a temperature close to 0° C. Superoxide (O2^•−) production was calculated from the initial linear rate (over 10 min) of SOD-inhibitable cytochrome c reduction quantified at 550 nm using the extinction coefficient of 21.1 mM^−1 cm^−1 (Biotek Synergy 4 Hybrid Multi-Mode Microplate Reader). The oxidase assay buffer consisted of 65 mM sodium phosphate buffer (pH 7.0), 1 mM EGTA, 10 μM FAD, 1 mM MgCl2, 2 mM NaN3 and 0.2 mM cytochrome C. The components of the cell-free system were added in the following order: oxidase assay buffer, cell lysate (5×10^5 cell equivalents/well) and drugs at a final concentration as shown on individual graphs. The plates were placed on an orbital shaker to mix contents for 5 min at 120 movements/min at room temperature. LiDS, an established lipid activator of phagocyte cell-free system, was added at a concentration of 130 μM and O2^•− production was initiated by the addition of 180 μM NADPH.
Cell-free activity in lysed COS-Nox2 cells was promising, since compound 7 was also able to inhibit O2^•− production in a system in which assembly of active Nox2 subunits is achieved by treatment with the anionic amphiphile LiDS (lithium dodecyl sulfate) and the reaction is initiated by cofactor NADPH (Molshanski-Mor et al., Methods Mol. Biol. 2007, 412:385-428). COS-Nox2 cell lysate was preincubated with various concentrations of compound 7 for 15 min at 25° C. After the addition of 130 μM LiDS, O2^•− production was initiated by the addition of 180 μM NADPH and measured by the initial linear rate of SOD-inhibitable cytochrome C reduction. O2^•− production is expressed as nmol O2^•−/min/10^7 cell equivalents.
Cells were suspended to a concentration of 5×10^7 cells/ml in ice-cold disruption buffer (8 mM potassium, sodium phosphate buffer pH 7.0, 131 mM NaCl, 340 mM sucrose, 2 mM NaN3, 5 mM MgCl2, 1 mM EGTA, 1 mM EDTA and protease inhibitor cocktail). The cells were lysed by freeze/thaw cycles (5 cycles), and passed through a 30-gauge needle five times to further lyse the cells. Cell disruption was confirmed by phase contrast microscopy. The cell lysate was centrifuged at 1000×g for 10 min at 4° C. to remove unbroken cells, nuclei and debris. Throughout all procedures, extreme care was taken to maintain the lysate at a temperature close to 0° C.
Superoxide (O2^•−) production from cell homogenates was calculated from the initial linear rate (over 10 min) of SOD-inhibitable cytochrome c reduction quantified at 550 nm using the extinction coefficient of 21.1 mM-1 cm-1 (Biotek Synergy 4 Hybrid Multi-Mode Microplate Reader). The oxidase assay buffer consisted of 65 mM sodium phosphate buffer (pH 7.0), 1 mM EGTA, 10 μM FAD, 1 mM MgCl2, 2 mM NaN3 and 0.2 mM cytochrome C.

[2] = system: cells; assay: Cytotoxicity assay (CytoTox-Glo); assay type: cell-based; conditions: highest concentration tested (25 and 50 μM tested, FIG. 5)
Method: The cytotoxic effect of compounds was tested using CytoTox-Glo kit (Promega, Madison, Wis.). This assay uses a luminogenic peptide substrate, the AAF-Glo™ Substrate, to measure dead-cell protease activity, which is released from cells that have lost membrane integrity. Cells were plated in 384-well plate at 2.5×10^3 cells/well in OPTIMEM, incubated for 15 min with the compounds at various concentrations and then carried out dead cell measurements according to manufacturer protocol. […] signals before and after the addition of digitonin were used to calculate the % of dead cells in each independent well.
Another undesirable side effect would be the reduction of ROS production in the assays due to cell death rather than an inhibition of Nox2. To verify that this was not the case for these tetrahydroisoquinolines, the effect of various concentrations of the compounds on cell viability was determined using a commercially available CytoTox-Glo assay (Promega). This assay measures the concentration of proteases released from cells that have lost membrane integrity (i.e., dead cells). Data are expressed as % of live cells in each independent well (=100−% dead cells).

[3] = cell-free system, data not shown, read-out: IC50 in a cell-free system

Row | IC50 [1, 3] [nM] | Compound | Effect on cell viability [2] | also measured
1 | ~30 | C=C(C)CC1C2c3c(Br)cccc3C(CC2(C)C)N1Cc1cccs1 (racemic) [Compound 11h, (±)-(1S,4R,9S)-5-Bromo-3,3-dimethyl-9-(2-methylallyl)-10-(thiophen-2-ylmethyl)-1,2,3,4-tetrahydro-1,4-(epiminomethano)naphthalene] |  | 
2 |  | CC(C)CC1NC2CC(C)(C)C1c1c(Br)cccc12 (racemic) [Compound 13] | had any effect on cell viability | 
3 |  | C=C(C)CC1NC2CC(C)(C)C1c1c(Br)cccc12 (racemic) [Compound 7, (±)-(1S,4R,9S)-5-Bromo-3,3-dimethyl-9-(2-methylallyl)-1,2,3,4-tetrahydro-1,4-(epimino-methano)-naphthalene] | had any effect on cell viability | LiDS-stimulated O2•− generation ([1]; 6.3 μM compound, lysed COS-Nox2 cells, 130 μM LiDS, 180 μM NADPH): almost non-stimulated levels
4 |  | C=C(C)C[C@@H]1N[C@H]2CC(C)(C)[C@@H]1c1c(Br)ccc(Br)c12 [Compound 9] | had any effect on cell viability | 
5 | ~30 | C=C(C)CC1C2c3c(Br)cccc3C(CC2(C)C)N1CCCCC (racemic) [Compound 11g, (±)-(1S,4R,9S)-5-Bromo-3,3-dimethyl-9-(2-methylallyl-10-pentyl-1,2,3,4-tetrahydro-1,4-(epiminomethano)naphthalene] |  | IC50 ([1]; Nox2 cell homogenate stimulated with LiDS, read-out: IC50 in ROS production by Nox2 cell homogenate): 32.4 ± 9 nM; IC50 in cell homogenate lower than that for whole cells ([1]; homogenate vs whole cells): 100 fold
